Experimental data from the supplement of paper PMC10307832.

What was measured:
Experiment in all cases: relative viability (nuclei count vs DMSO), 5 days (fraction); higher = more cells survive
Pemetrexed + Palbociclib = compound: Nc1nc2[nH]cc(CCc3ccc(C(=O)N[C@@H](CCC(=O)O)C(=O)O)cc3)c2c(=O)[nH]1 [Pemetrexed] + CC(=O)c1c(C)c2cnc(Nc3ccc(N4CCNCC4)cn3)nc2n(C2CCCC2)c1=O [Palbociclib] (partner 0.5 µM)
Procedure, shortened: (§1)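 Lung cancer cell lines were seeded in 1536-well plates and dosed by pin tool the next day, with either a single drug or a fixed anchor-drug dose combined with five library-drug doses (not always all listed) spaced in √10 steps. Five days later, one step fixed the cells and stained their nuclei (final 0.05% Triton X-100, 1% formaldehyde, 1 ug/ml Hoechst), and nuclei were counted on 4× images. Relative viability is the nuclei count in treated wells divided by the count in vehicle wells, and each value is the median of duplicate plates.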

Pemetrexed + OSI-027 = compound: Nc1nc2[nH]cc(CCc3ccc(C(=O)N[C@@H](CCC(=O)O)C(=O)O)cc3)c2c(=O)[nH]1 [Pemetrexed] + COc1cccc2cc(-c3nc([C@H]4CC[C@H](C(=O)O)CC4)n4ncnc(N)c34)[nH]c12 [OSI-027] (partner 0.5 µM)
Procedure, shortened: as §1

Idelalisib + Trametinib = compound: CC[C@H](Nc1ncnc2[nH]cnc12)c1nc2cccc(F)c2c(=O)n1-c1ccccc1 [Idelalisib] + CC(=O)Nc1cccc(-n2c(=O)n(C3CC3)c(=O)c3c(Nc4ccc(I)cc4F)n(C)c(=O)c(C)c32)c1 [Trametinib] (partner 0.02 µM)
Procedure, shortened: as §1

Idelalisib + AZD7762 = compound: CC[C@H](Nc1ncnc2[nH]cnc12)c1nc2cccc(F)c2c(=O)n1-c1ccccc1 [Idelalisib] + NC(=O)Nc1cc(-c2cccc(F)c2)sc1C(=O)N[C@H]1CCCNC1 [AZD7762] (partner 0.2 µM)
Procedure, shortened: as §1

Cell Line | relative viability (Pemetrexed + Palbociclib; first compound 0.002 µM) | relative viability (Pemetrexed + Palbociclib; first compound 0.006325 µM) | relative viability (Pemetrexed + Palbociclib; first compound 0.02 µM) | relative viability (Pemetrexed + Palbociclib; first compound 0.06325 µM) | relative viability (Pemetrexed + Palbociclib; first compound 0.2 µM) | relative viability (Pemetrexed + OSI-027; first compound 0.002 µM) | relative viability (Pemetrexed + OSI-027; first compound 0.006325 µM) | relative viability (Pemetrexed + OSI-027; first compound 0.02 µM) | relative viability (Pemetrexed + OSI-027; first compound 0.06325 µM) | relative viability (Pemetrexed + OSI-027; first compound 0.2 µM) | relative viability (Idelalisib + Trametinib; first compound 0.04 µM) | relative viability (Idelalisib + Trametinib; first compound 0.1265 µM) | relative viability (Idelalisib + Trametinib; first compound 0.4 µM) | relative viability (Idelalisib + Trametinib; first compound 1.265 µM) | relative viability (Idelalisib + Trametinib; first compound 4 µM) | relative viability (Idelalisib + AZD7762; first compound 0.04 µM) | relative viability (Idelalisib + AZD7762; first compound 0.1265 µM) | relative viability (Idelalisib + AZD7762; first compound 0.4 µM) | relative viability (Idelalisib + AZD7762; first compound 1.265 µM) | relative viability (Idelalisib + AZD7762; first compound 4 µM)
NCI-H661 | 0.501 | 0.419 | 0.405 | 0.415 | 0.386 | 0.782 | 0.711 | 0.767 | 0.698 | 0.694 | 0.585 | 0.579 | 0.535 | 0.618 | 0.502 | – | – | – | – | –
CAL-12T | 0.338 | 0.435 | 0.575 | 0.438 | 0.341 | 0.617 | 0.631 | 0.819 | 0.648 | 0.671 | 0.422 | 0.28 | 0.276 | 0.363 | 0.339 | 0.843 | 0.653 | 0.713 | 0.398 | 0.654
HARA | 0.241 | 0.277 | 0.228 | 0.231 | 0.234 | 0.407 | 0.533 | 0.53 | 0.487 | 0.186 | 0.78 | 0.773 | – | 0.593 | 0.671 | 0.309 | 0.301 | – | 0.169 | 0.392
NCI-H596 | – | – | – | – | – | 0.705 | 0.691 | 0.642 | 0.632 | 0.414 | 0.756 | 0.82 | 0.782 | 0.878 | 0.592 | 1.02 | 1.11 | 1.24 | 0.853 | 0.912
LU99A | 0.409 | 0.389 | 0.407 | 0.397 | 0.407 | 0.334 | 0.267 | 0.326 | 0.292 | 0.313 | 0.6 | 0.539 | 0.546 | 0.542 | 0.502 | 0.335 | 0.422 | 0.294 | 0.209 | 0.425
LC-2-ad | 0.452 | 0.501 | 0.524 | 0.431 | 0.404 | 0.606 | 0.831 | 0.561 | 0.28 | 0.339 | 0.963 | 0.957 | 0.931 | 1.02 | 0.806 | 0.826 | 0.86 | 0.734 | 0.782 | 0.632
NCI-H1650 | 0.284 | 0.299 | 0.381 | 0.247 | 0.245 | 0.674 | 0.531 | 0.714 | 0.356 | 0.304 | 0.524 | 0.46 | 0.618 | 0.51 | 0.575 | – | – | – | – | –
NCI-H1915 | 0.487 | 0.512 | 0.568 | 0.521 | 0.522 | 0.58 | 0.631 | 0.661 | 0.609 | 0.573 | 0.281 | 0.291 | 0.291 | 0.317 | 0.265 | 0.766 | 0.687 | 0.643 | 0.552 | 0.68
ABC-1 | 0.905 | 0.527 | 0.684 | 0.468 | 0.542 | 0.515 | 0.359 | 0.736 | 0.529 | 0.512 | – | – | – | – | – | 0.904 | 0.738 | 0.783 | 0.729 | 0.864
HCC-44 | 0.909 | 0.95 | 0.934 | 0.972 | 0.99 | 0.489 | 0.623 | 0.631 | 0.484 | 0.444 | 1.07 | 1.04 | 1.08 | 1.06 | 0.941 | 1.04 | 0.998 | 1.03 | 0.991 | 1.11
HCC-78 | 0.443 | 0.484 | 0.441 | 0.417 | 0.424 | 0.326 | 0.354 | 0.395 | 0.336 | 0.293 | 0.68 | 0.702 | 0.711 | 0.704 | 0.542 | 0.509 | 0.649 | 0.555 | 0.609 | 0.547
LXF-289 | 0.593 | 0.623 | 0.589 | 0.594 | 0.557 | 0.775 | 0.759 | 0.909 | 0.76 | 0.744 | 0.694 | 0.706 | 0.655 | 0.721 | 0.734 | 1.16 | 1.09 | 1.15 | 0.838 | 1.16
201T | 0.396 | 0.352 | 0.365 | 0.335 | 0.362 | 0.748 | 0.739 | 0.748 | 0.617 | 0.406 | 0.701 | 0.697 | 0.688 | 0.759 | 0.734 | 0.712 | 0.587 | 0.523 | 0.377 | 0.583
NCI-H1734 | 0.192 | 0.358 | 0.366 | 0.333 | 0.346 | 0.65 | 0.564 | 0.675 | 0.571 | 0.53 | 0.696 | 0.697 | 0.546 | 0.69 | 0.556 | 0.544 | 0.543 | 0.477 | 0.209 | 0.552
NCI-H1623 | – | – | – | – | – | 0.406 | 0.451 | 0.552 | 0.462 | 0.426 | – | – | – | – | – | – | – | – | – | –
NCI-H2126 | 0.363 | 0.327 | 0.409 | 0.339 | 0.359 | 0.601 | 0.805 | 0.808 | 0.796 | 0.691 | 0.602 | 0.602 | 0.542 | 0.575 | 0.485 | 0.961 | 1.06 | 0.94 | 1.02 | 1
LOU-NH91 | 0.478 | 0.555 | 0.543 | 0.534 | 0.52 | 0.68 | 0.727 | 0.789 | 0.667 | 0.531 | 0.85 | 0.803 | 0.718 | 0.751 | 0.781 | 0.833 | 0.807 | 0.686 | 0.638 | 0.673
